Activity calls are given as the source filed them. No cut-off for these calls is given here.
Legend:
NCI-H2228 = assay: Antiproliferative activity against human NCI-H2228 cells harboring wild type KRAS assessed as reduction in cell viability incubated for 72 hrs by MTT assay; type: functional, cell-based; conditions: NCI-H2228, 72 h
A549 = assay: Antiproliferative activity against human A549 cells harboring KRAS G12S mutant assessed as reduction in cell viability incubated for 72 hrs by MTT assay; type: functional, cell-based; conditions: A549, 72 h
NCI-H358 = assay: Antiproliferative activity against human NCI-H358 cells harboring KRAS G12C mutant assessed as reduction in cell viability incubated for 72 hrs by MTT assay; type: functional, cell-based; conditions: NCI-H358, 72 h
NCI-H23 = assay: Antiproliferative activity against human NCI-H23 cells harboring KRAS G12C mutant assessed as reduction in cell viability incubated for 72 hrs by MTT assay; type: functional, cell-based; conditions: NCI-H23, 72 h
[1] = Selectivity index, ratio of IC50 for human NCI-H2228 cells harboring wild type KRAS to IC50 for human NCI-H358 cells harboring KRAS G12C mutant; type: functional
[2] = Selectivity index, ratio of IC50 for human A549 cells harboring KRAS G12S mutant to IC50 for human NCI-H23 cells harboring KRAS G12C mutant; type: functional
[3] = Selectivity index, ratio of IC50 for human A549 cells harboring KRAS G12S mutant to IC50 for human NCI-H358 cells harboring KRAS G12C mutant; type: functional
[4] = Selectivity index, ratio of IC50 for human NCI-H2228 cells harboring wild type KRAS to IC50 for human NCI-H23 cells harboring KRAS G12C mutant; type: functional
NCI-H441 = assay: Antiproliferative activity against human NCI-H441 cells harboring KRAS G12V mutant assessed as reduction in cell viability incubated for 72 hrs by MTT assay; type: functional, cell-based; conditions: NCI-H441, 72 h
[5] = Cytotoxicity against human MRC5 cells assessed as reduction in cell viability incubated for 72 hrs by MTT assay; type: toxicity, cell-based
SK-LU-1 = assay: Antiproliferative activity against human SK-LU-1 cells harboring KRAS G12D mutant assessed as reduction in cell viability incubated for 72 hrs by MTT assay; type: functional, cell-based; conditions: SK-LU-1, 72 h
[6] = target: GTPase KRas (Homo sapiens) (UniProt P01116); assay: Covalent binding affinity to 6his tagged GDP bound human wildtype KRAS expressed in Escherichia coli BL21 (DE3) cells at 200 uM incubated for 24 hrs by LC-MS/MS analysis
[7] = test system: GTPase KRas (Homo sapiens), P01116 [G12C]; assay: (§1) Inhibition of 6His tagged Mant-GDP loaded human KRAS G12C mutant (1 to 169 residues) expressed in Escherichia coli BL21 (DE3) cells assessed as inhibition of SOS1-mediated nucleotide exchange at 10 uM preincubated with compound for 1 hrs followed by addition of GTP and SOS1 protein and measured every 90 sec for 2 hrs by fluorescence based assay; conditions: time 3.0 hrs
[8] = test system: GTPase KRas (Homo sapiens), P01116 [G12C]; assay: Covalent binding affinity to 6His tagged GDP bound human KRAS G12C mutant (1 to 169 residues) expressed in Escherichia coli BL21 (DE3) cells at 200 uM incubated for 24 hrs by LC-MS /MS analysis
[9] = test system: GTPase KRas (Homo sapiens), P01116 [G12C]; assay: as §1, with “[…]” for “SOS1-mediated”, “EDTA” for “SOS1 protein”; conditions: time 3.0 hrs

SMILES	IC50 (NCI-H2228) [µM]	IC50 (A549) [µM]	IC50 (NCI-H358) [µM]	IC50 (NCI-H23) [µM]	other results
O=C(Nc1ccc(Cl)c(Cl)c1)NC1CCN(C(=O)CCl)CC1	9.2	7.4	5.5	4.8	
C=CS(=O)(=O)N1CCC(NC(=O)Nc2ccc(Cl)cc2)CC1	27.5	> 100	31.9	18.9	
C=CC(=O)N1CC[C@@H](NC(=O)Nc2ccc(Cl)c(C(F)(F)F)c2)C1	58	> 100	38.1	29.7	
C=CC(=O)N1CC[C@H](NC(=O)c2cc(=O)c3cc(Cl)c(I)cc3[nH]2)C1	13.1	24.4	14.9	10.3	
C=CS(=O)(=O)NC1CCN(C(=O)c2cc(=O)c3cc(Cl)c(I)cc3[nH]2)CC1	19.4	11.9	9.1	6.4	Ratio IC50 [1]: 2; Ratio IC50 [2]: 2; Ratio IC50 [3]: 2; Ratio IC50 [4]: 2
C=CC(=O)N1CC[C@@H](NC(=O)Nc2ccc(Cl)cc2)C1	> 100	> 100	> 100	> 100	
C=CC(=O)NC1CCN(C(=O)c2cc(=O)c3ccccc3[nH]2)CC1	> 100	> 100	44.8	> 100	
O=C(CCl)N1CCN(C(=O)Nc2ccc(Cl)c(C(F)(F)F)c2)CC1	0.6	1.5	4.6	9.2	
C=CC(=O)N1CC[C@H](NC(=O)Nc2ccc(Cl)c(C(F)(F)F)c2)C1	38.2	> 100	22.8	28.9	
C=CC(=O)NC1CCN(C(=O)c2cc(=O)c3cc(Cl)c(C(F)(F)F)cc3[nH]2)CC1	42.4	46.2	18.5	8.2	
C=CC(=O)N1CC[C@H](NC(=O)Nc2ccc(Cl)c(Cl)c2)C1	65.3	> 100	34.2	40.8	
C=CS(=O)(=O)NC1CCN(C(=O)CNc2cc(I)c(Cl)cc2OC)CC1	7.2	5.2	4.4	3	IC50 (NCI-H441): 21.5 µM; IC50 at 72 h [5]: 10.3 µM; IC50 (SK-LU-1): 22.8 µM
C=CS(=O)(=O)N1CCC(NC(=O)Nc2ccc(Cl)c(C(F)(F)F)c2)CC1	6.4	3.3	4.2	2.6	
C=CC(=O)N1CC[C@@H](NC(=O)Nc2ccc(Cl)c(Cl)c2)C1	61.9	> 100	45.5	41.4	
O=C(Nc1ccc(Cl)c(C(F)(F)F)c1)NC1CCN(C(=O)CCl)CC1	10.6	8	3.1	2.3	Activity [6]: inactive; inhibition [7]: Active; Activity [8]: Active; inhibition [9]: inactive

— ChEMBL document CHEMBL5247585, “Design, synthesis, and evaluation of 4(1H)-quinolinone and urea derivatives as KRASG12C inhibitors with potent antitumor activity against KRAS-mutant non-small cell lung cancer” (Eur J Med Chem, 2022)
